Assay results: patent publication US20090042937A1, “[…] USE IN TREATING OR […]-RELATED DISEASES” (priority 2005, published 2009)
Where “and” joins values, the source holds several entries; their conditions need not be identical. Equal entries are not always repeated.

Key:
[1] = system: XPE-DNA damage binding protein (AA104319); assay: Microarray gene expression in cardiac tissue of Tempol-fed mice; assay type: in vivo; details: 5 mg/g of food from 14 to 31 months
Experimental: (§1) To assess the effects of Tempol on gene expression, Tempol was administered to experimental mice at a dose of 5 mg/g of food from 14 months to 31 months after birth. Mice receiving the same food without the addition of Tempol were used as a negative control. At the age of 31 months, the experimental animals were sacrificed and the hearts were surgically removed. The expression of a broad spectrum of genes in the cardiac tissue was assessed using chip-based microarray technology. Such chips are well known in the art and are widely used to assess gene expression.

[2] = system: Interferon γ-inducible protein/IRG 47GTP-binding (M63690); assay: as above; assay type: in vivo; details: 5 mg/g of food from 14 to 31 months
Experimental: as §1

[3] = system: Immunophilin (FKBP25) (AA120298); assay: as above; assay type: in vivo; details: 5 mg/g of food from 14 to 31 months
Experimental: as §1

[4] = system: Cyclophilin A (AA116993); assay: as above; assay type: in vivo; details: 5 mg/g of food from 14 to 31 months
Experimental: as §1

[5] = system: CD53 antigen (X97227); assay: as above; assay type: in vivo; details: 5 mg/g of food from 14 to 31 months
Experimental: as §1

[6] = system: Lymphocyte receptor/polyubiquitin (W13546); assay: as above; assay type: in vivo; details: 5 mg/g of food from 14 to 31 months
Experimental: as §1

[7] = system: CD52 antigen (M55561); assay: as above; assay type: in vivo; details: 5 mg/g of food from 14 to 31 months
Experimental: as §1

[8] = system: Cathepsin B (M65270); assay: as above; assay type: in vivo
Experimental: as §1

[9] = system: Serum amyloid P-component precursor (SAP) (Y00426); assay: as above; assay type: in vivo
Experimental: as §1

[10] = system: Serum amyloid A-1 protein precursor (M13521); assay: as above; assay type: in vivo
Experimental: as §1

[11] = system: Selenium-binding protein 2 (M32032); assay: as above; assay type: in vivo; details: 5 mg/g of food from 14 to 31 months
Experimental: as §1

[12] = system: Interferon induced protein (AA013783); assay: as above; assay type: in vivo; details: 5 mg/g of food from 14 to 31 months
Experimental: as §1

[13] = system: T-lymphocyte 1/rpt-1 regulatory protein (J03776); assay: as above; assay type: in vivo; details: 5 mg/g of food from 14 to 31 months
Experimental: as §1

[14] = system: T-cell specific GTPase (U15636); assay: as above; assay type: in vivo; details: 5 mg/g of food from 14 to 31 months
Experimental: as §1

[15] = system: JAK-1 (AA066354); assay: as above; assay type: in vivo
Experimental: as §1

[16] = system: XPE UV-damaged DNA binding factor (W62091); assay: as above; assay type: in vivo; details: 5 mg/g of food from 14 to 31 months
Experimental: as §1

[17] = system: Interferon α-induced 11.5 kd protein (P27) (AA120109); assay: as above; assay type: in vivo; details: 5 mg/g of food from 14 to 31 months
Experimental: as §1

[18] = system: Interferon-inducible protein (AA002526); assay: as above; assay type: in vivo; details: 5 mg/g of food from 14 to 31 months
Experimental: as §1

[19] = system: Hsp-90 homolog (W62326); assay: as above; assay type: in vivo; details: 5 mg/g of food from 14 to 31 months
Experimental: as §1

[20] = system: Caspase 3; assay: Microarray gene expression in adipose tissue of Tempol-fed mice; assay type: in vivo
Experimental: (§2) In a further gene expression study, Tempol was administered to experimental mice at a dose of 5 g/kg of diet from 12 months through 15 months. Mice receiving the same diet without the addition of Tempol were used as a negative control. At the age of 15 months, the adipose tissue of the experimental animals was obtained. The expression of a broad spectrum of genes in the adipose tissue was assessed using chip-based microarray technology. Specifically, in this case an Affymetrix MOE430A 2.0 array, containing 12,960 genes, was employed. Such chips are well known in the art and are widely used to assess gene expression.

[21] = system: Eukaryotic translation initiation factor 4 E2 (EIF4E2); assay: as above; assay type: in vivo
Experimental: as §2

[22] = system: Eukaryotic translation initiation factor for E binding protein 1 (EIF4EBP1); assay: as above; assay type: in vivo
Experimental: as §2

[23] = system: Cyclooxygenase 1 (COX-1); assay: as above; assay type: in vivo
Experimental: as §2

[24] = system: eukaryotic translation initiation factor 4E member 2; assay: Circulating serum protein levels in patient after Tempol treatment; assay type: in vivo, human; details: 1500 mg per day for 180 days
Description: (§3) This may be administered in a single dose, or may be administered as a number of smaller doses over a 24-hour period: for example, three 500-mg doses at eight-hour intervals. Following treatment, the circulating serum protein levels of serum amyloid P-component precursor, serum amyloid A-1 protein precursor, JAK-1, cathepsin B, eukaryotic translation initiation factor 4E member 2, cyclooxygenase-1, and caspase 3 are reduced. Furthermore, the serum protein levels of eukaryotic translation initiation factor 4E binding protein are increased.
as §3, with “JAK-1, and” for “JAK-1,”

[25] = system: cathepsin B; assay: as above; assay type: in vivo, human; details: 1500 mg per day for 180 days
Description: as §3
as §3, with “JAK-1, and” for “JAK-1,”

[26] = system: eukaryotic translation initiation factor 4E binding protein; assay: as above; assay type: in vivo, human; details: 1500 mg per day for 180 days
Description: as §3
as §3, with “JAK-1, and” for “JAK-1,”

[27] = system: JAK-1; assay: as above; assay type: in vivo, human; details: 1500 mg per day for 180 days
Description: as §3
as §3, with “JAK-1, and” for “JAK-1,”

[28] = system: cyclooxygenase-1; assay: as above; assay type: in vivo, human; details: 1500 mg per day for 180 days
Description: as §3
as §3, with “JAK-1, and” for “JAK-1,”

[29] = system: serum amyloid A-1 protein precursor; assay: as above; assay type: in vivo, human; details: 1500 mg per day for 180 days
Description: as §3
as §3, with “JAK-1, and” for “JAK-1,”

[30] = system: serum amyloid P-component precursor; assay: as above; assay type: in vivo, human; details: 1500 mg per day for 180 days
Description: as §3
as §3, with “JAK-1, and” for “JAK-1,”

[31] = system: caspase 3; assay: as above; assay type: in vivo, human; details: 1500 mg per day for 180 days
Description: as §3
as §3, with “JAK-1, and” for “JAK-1,”

[32] = cardiac tissue of experimental mice, Table 1
[33] = adipose tissue of experimental mice, Table 4
[34] = Example 1: 70-kilogram patient with symptoms of dementia
[35] = Example 2: 70-kilogram patient with familial risk factors, no symptoms of dementia

CC1(C)CC(O)CC(C)(C)N1[O] [Tempol, 4-hydroxy-2,2,6,6-tetramethylpiperidine-1-oxyl]
Fold change ([1]; TEMPOL-treated vs control mice): −5.2 fold | Expression, TEMPOL-treated mice (tp51, tp52, tp53) ([1]; individual mice): 25 and 37 and 115 | Fold change ([2]; TEMPOL-treated vs control mice): −2.0 fold | Expression, TEMPOL-treated mice (tp51, tp52, tp53) ([2]; individual mice): 29 and 20 and 1 | Fold change ([3]; TEMPOL-treated vs control mice): −2.1 fold | Expression, TEMPOL-treated mice (tp51, tp52, tp53) ([3]; individual mice): 200 and 154 and 164 | Fold change ([4]; TEMPOL-treated vs control mice): −2.1 fold | Expression, TEMPOL-treated mice (tp51, tp52, tp53) ([4]; individual mice): 12 and −14 and −10 | Fold change ([5]; TEMPOL-treated vs control mice): −2.1 fold | Expression, TEMPOL-treated mice (tp51, tp52, tp53) ([5]; individual mice): 21 and −17 and −13 | Fold change ([6]; TEMPOL-treated vs control mice): −55.2 fold | Expression, TEMPOL-treated mice (tp51, tp52, tp53) ([6]; individual mice): −16 and −66 and 1331 | Fold change ([7]; TEMPOL-treated vs control mice): −3.5 fold | Expression, TEMPOL-treated mice (tp51, tp52, tp53) ([7]; individual mice): 106 and 177 and 171 | Fold change ([8]; M65270, cardiac tissue, TEMPOL-treated vs control mice, 5 mg/g of food from 14 to 31 months): −2.8 fold | Expression, TEMPOL-treated mice (tp51, tp52, tp53) ([8]; M65270, cardiac tissue, individual mice, 5 mg/g of food from 14 to 31 months): −12 and 6 and 13 | expression of cathepsin B reduced ([8]; cardiac tissue of experimental mice, text restating Table 2): 2.8 fold | Fold change ([9]; Y00426, cardiac tissue, TEMPOL-treated vs control mice, 5 mg/g of food from 14 to 31 months): −2.8 fold | Expression, TEMPOL-treated mice (tp51, tp52, tp53) ([9]; Y00426, cardiac tissue, individual mice, 5 mg/g of food from 14 to 31 months): 43 and 61 and 119 | expression of serum amyloid P component precursor reduced [9, 32]: 2.8 fold | Fold change ([10]; M13521, cardiac tissue, TEMPOL-treated vs control mice, 5 mg/g of food from 14 to 31 months): −2.5 fold | Expression, TEMPOL-treated mice (tp51, tp52, tp53) ([10]; M13521, cardiac tissue, individual mice, 5 mg/g of food from 14 to 31 months): 6 and 1 and 8 | expression of serum amyloid A-1 protein precursor reduced [10, 32]: 2.5 fold | Fold change ([11]; TEMPOL-treated vs control mice): −2.1 fold | Expression, TEMPOL-treated mice (tp51, tp52, tp53) ([11]; individual mice): 554 and 600 and 670 | Fold change ([12]; TEMPOL-treated vs control mice): −4.9 fold | Expression, TEMPOL-treated mice (tp51, tp52, tp53) ([12]; individual mice): −81 and 27 and 41 | Fold change ([13]; TEMPOL-treated vs control mice): −2.7 fold | Expression, TEMPOL-treated mice (tp51, tp52, tp53) ([13]; individual mice): 17 and 42 and 29 | Fold change ([14]; TEMPOL-treated vs control mice): −2.0 fold | Expression, TEMPOL-treated mice (tp51, tp52, tp53) ([14]; individual mice): 146 and 79 and 164 | Fold change ([15]; AA066354, cardiac tissue, TEMPOL-treated vs control mice, 5 mg/g of food from 14 to 31 months): −5.1 fold | Expression, TEMPOL-treated mice (tp51, tp52, tp53) ([15]; AA066354, cardiac tissue, individual mice, 5 mg/g of food from 14 to 31 months): 124 and 22 and 30 | expression of JAI(-1 reduced) [15, 32]: 5.1 fold | Fold change ([16]; TEMPOL-treated vs control mice): −2.9 fold | Expression, TEMPOL-treated mice (tp51, tp52, tp53) ([16]; individual mice): 61 and 75 and 213 | Fold change ([17]; TEMPOL-treated vs control mice): −2.3 fold | Expression, TEMPOL-treated mice (tp51, tp52, tp53) ([17]; individual mice): 149 and 88 and 72 | Fold change ([18]; TEMPOL-treated vs control mice): −2.7 fold | Expression, TEMPOL-treated mice (tp51, tp52, tp53) ([18]; individual mice): 26 and 34 and 36 | Fold change ([19]; TEMPOL-treated vs control mice): −2.4 fold | Expression, TEMPOL-treated mice (tp51, tp52, tp53) ([19]; individual mice): 6 and 16 and 39 | Mean (Tempol-treated mice) ([20]; Caspase 3, adipose tissue, 5 g/kg of diet from 12 through 15 months, Affymetrix MOE430A 2.0 array): 414 | Fold change ([20]; Caspase 3, adipose tissue, Tempol-treated vs control mice, 5 g/kg of diet from 12 through 15 months): −1.47 fold | expression of caspase 3 reduced [20, 33]: 1.47 fold | Mean (Tempol-treated mice) ([21]; EIF4E2, 5 g/kg of diet from 12 through 15 months, Affymetrix MOE430A 2.0 array): 873 | Fold change ([21]; EIF4E2, Tempol-treated vs control mice, 5 g/kg of diet from 12 through 15 months): −1.23 fold | expression of the EIF4E2 protein downregulated ([21]; Table 4): 1.23 fold | Mean (Tempol-treated mice) ([22]; EIF4EBP1, 5 g/kg of diet from 12 through 15 months, Affymetrix MOE430A 2.0 array): 4737 | Fold change ([22]; EIF4EBP1, Tempol-treated vs control mice, 5 g/kg of diet from 12 through 15 months): 1.29 fold | expression of EIF4E binding protein 1 upregulated ([22]; Table 3): 1.29 fold | Mean (Tempol-treated mice) ([23]; COX-1, adipose tissue, 5 g/kg of diet from 12 through 15 months, Affymetrix MOE430A 2.0 array): 331 | Fold change ([23]; COX-1, adipose tissue, Tempol-treated vs control mice, 5 g/kg of diet from 12 through 15 months): −1.18 fold | expression of COX-1 reduced [23, 33]: 1.18 fold | circulating serum protein level of eukaryotic translation initiation factor 4E member 2 [24, 34]: reduced | circulating serum protein level of eukaryotic translation initiation factor 4E member 2 [24, 35]: reduced | circulating serum protein level of cathepsin B [25, 34]: reduced | circulating serum protein level of cathepsin B [25, 35]: reduced | serum protein level of eukaryotic translation initiation factor 4E binding protein [26, 34]: increased | serum protein level of eukaryotic translation initiation factor 4E binding protein [26, 35]: increased | circulating serum protein level of JAK-1 [27, 34]: reduced | circulating serum protein level of JAK-1 [27, 35]: reduced | circulating serum protein level of cyclooxygenase-1 [28, 34]: reduced | circulating serum protein level of cyclooxygenase-1 [28, 35]: reduced | circulating serum protein level of serum amyloid A-1 protein precursor [29, 34]: reduced | circulating serum protein level of serum amyloid A-1 protein precursor [29, 35]: reduced | circulating serum protein level of serum amyloid P-component precursor [30, 34]: reduced | circulating serum protein level of serum amyloid P-component precursor [30, 35]: reduced | circulating serum protein level of caspase 3 [31, 34]: reduced | circulating serum protein level of caspase 3 [31, 35]: reduced
